Entries after “also recorded” stand apart in the source; their conditions may differ.
Legend:
[1] = Plasma stability (half-life of inhibitory potency in human plasma); type: in vitro ADME
Description: In order to investigate the stability of glutaminyl pyrrolidine or glutaminyl thiazolidine in human plasma, the activity of DPIV in plasma was determined at a defined time. The average DPIV activity in human plasma was determined as 43.69 U/ml. In the working solution, the plasma was diluted in 0.9% NaCl to fix the DPIV activity level at 25 U/ml.
Plasma and glutaminyl pyrrolidine or glutaminyl thiazolidine in different concentrations (5*10^−5, 2.5*10^−5, 1.25*10^−5M in plasma) were incubated at 37° C. At defined time points samples were taken using a pipette roboter (Gilson 215, Liquid handler, Gilson) and transferred in a microtiter plate containing 5*10^−5M glycylprolylaminomethylcoumarine in 0.9% NaCl+015% Brij per well. After 6 min the reaction was stopped by addition of isoleucylthiazolidine (5*10^−5M in 0.9% NaCl solution).
Fluorescence measurement was performed against 0.9% NaCl in plasma (reference standard) using a plate reader (HTS7000plus, Applied Biosystems, Weiterstadt, Germany). The half-life of the inhibitory potency of glutaminyl pyrrolidine or glutaminyl thiazolidine was calculated by plotting the enzyme activity versus reaction time.

[2] = In vivo inactivation (degradation) after oral administration to Wistar rats, LC/MS; details: LC/MS of plasma
Description: Glutaminyl thiazolidine was administered to Wistar rats orally as described in example 9.
After application of placebo or glutaminyl thiazolidine, arterial blood samples were taken at 2.5, 5, 7.5, 10, 15, 20, 40, 60 and 120 min from the carotid catheter of the conscious unrestrained rats to determine the formation of degradation products of glutaminyl thiazolidine.
For analysis, simple solid phase extraction procedure on C18 cartridges was used to isolate the compounds of interest from the plasma. The extracts were analysed using reversed-phase liquid chromatography on Lichrospher 60 RP Select B column hyphenated with tandem mass spectrometry operating in the APCl positive mode. An internal standard method was used for quantification.

[3] = listed as Glutaminyl thiazolidine

For `NC(=O)CCC(N)C(=O)N1CCSC1` (stereo not drawn) [glutaminyl thiazolidine], the “half-life of the inhibitory potency in human plasma” value ([1]; 37° C., 5*10^−5, 2.5*10^−5, 1.25*10^−5M) was “no half-time could be determined”, the “stability in human plasma” value ([1]; over 22 hours) was “stable in human plasma over 22 hours” and the degradation in vivo [2] was “a degradation of the compound was found”. For the same compound, the “degradation product found in vivo” value [2] was “pyroglutaminyl thiazolidine; also recorded: pyroglutamyl thiazolidine”, the degradation in vivo [2, 3] was “degraded” and the “degradation product found in vivo” value [2, 3] was “pyroglutaminyl thiazolidine”.
